Key:
[1] = test system: MRL/Ipr (Dry Eye) Mice
Experimental: To study the level of tear production over time, 10 MRL/Ipr mice and 5 of the age-matched C57 Black/6 control mice at 8 weeks of age were purchased from Jackson Laboratory (Bar Harbor, Me., USA). The mouse strain MRL/Ipr has a mutation which predisposes it to dry eye similar to Sjogren's Syndrome.
Tear production was measured with cotton thread (Quick Zone®) held with forceps and applied to the ocular surface at the lateral canthus for 15 to 30 seconds. Wetting of the thread was measured in millimeters.
C57 mice also received vehicle. Tear volume was measured on days 2, 3, and 6.
Tear measurement was done using phenol red impregnated thread (Quick Zone®) and baseline measurement was performed before each drug application. Drugs or vehicles were applied at 2 μl, two times a day.
Vehicle-treated normal C57black/6 and MRL/Ipr dry eye mice were used as normal control and dry eye control, respectively.
Control animals included normal C57Black/6 mice, and MRL/Ipr mice, treated with PBS vehicle and MRL/Ipr mice treated with Refresh Endura® (vehicle for Restasis) (5-10 mice/group).
As with Example 4 above, vehicle-treated normal C57black/6 and MRL/Ipr dry eye mice (5-10 mice/group) were used as normal control and dry eye control, respectively. […] Treatment for Formulation 1 was carried for two weeks, at 2 μl, twice a day.

[2] = test system: dry-induced C57 mice; experiment: Induced dry eye mouse model (scopolamine and fans), tear production; assay type: in vivo; details: for tear production versus normal tear production values: after 4 days of treatment, induced dry eye mice
Experimental: An injection was prepared comprising 2.5 mg/ml scopolamine (sigma) in injectable saline (1-1.5 ml per animal). In normal C57 mice (200-250) ul of scopolamine was injected four times every 2.5 hrs in alternating hind quarters. The mice were placed in special cages (with holes in front and back) and placed in a hood. Fans were placed in front of each cage, and turned on for 16 hours over night for five days.
Measurements were taken daily.
As with Examples 4 and 5 above, animals were treated with drug or vehicle at 1 μl, once a day for 2 weeks.

[3] = CP-690550 0.01% vs Restasis (cyclosporine 0.05%), twice a day for 30 days, MRL/Ipr mice (FIG. 3)

C[C@@H]1CCN(C(=O)CC#N)C[C@@H]1N(C)c1ncnc2[nH]ccc12 [CP0690550, 3-{(3R,4R)-4-Methyl-3-[methyl-(7H-pyrrolo[2,3-d]pyrimidin-4-yl)-amino]-piperidin-1-yl}-3-oxo-propionitrile]
tear production comparable to normal: within x% of tear production by C57 normal mice ([1]; 0.01% (w/w) in Formulation 1 vehicle, twice a day, within 8 days, MRL/Ipr mice (FIG. 4)): 5 to 10%
increase of tear production volume ([1]; 0.1% (w/w) twice a day, topical, MRL/Ipr mice, within the first 2 days of application (FIG. 2)): significantly increase
response rate as compared to Restasis [1, 3]: much faster response rate
volume of tear production over Restasis [1, 3]: significant improvement
improvement in tear production ([1]; all comparisons (Formulations 1, 3 and 4 vehicle, FIGS. 4-6), 2 days after treatment, MRL/Ipr mice): significant improvement
tear production volume comparable to normal: within x% of tear production by normal C57 mice ([1]; ultimately reached, MRL/Ipr mice, FIGS. 3 and 4): 5 to 10%
tear production versus normal tear production values ([2]; 0.003% in Formulation 5, once a day): approximated normal tear production values
tear production versus normal tear production values ([2]; 0.01% (w/w) in Formulation 3, once a day): approximated normal tear production values
increase in tear production ([2]; Formulations 3 and 5, 1 μl once a day, at 2 days of treatment, induced dry eye mice (FIGS. 7 and 8)): significant increase

— patent publication US8541426B2, “Pharmaceutical compositions and methods of treating dry eye disorders” (Pfizer Inc., priority 2007, dated 2013)
